Measured values reported in patent US20050090471A1, “Inhibitors of cyclin-dependent kinases, compositions and uses related thereto” (GPC Biotech, Inc, priority 2001, published 2005).

Key:
Type in all cases: cell-based, human
[1] = tested on: arrested HCT-116 cells; assay: Arrested cell assay (serum starvation), HCT-116; set-up: unit not given here; conditions: serum-starved arrested cells; unit not given
Description: Cyclin-dependent kinase (Cdk) activity is required to promote the progression of cells through distinct phases of the cell division cycle. The proliferation of normal, non-transformed, cells in culture requires the presence of growth factors, the removal of which, through serum deprivation, leads to a loss of Cdlc activity and consequent exit from the cell cycle as cells enter the quiescent phase, Go.
HCT-116 cells were plated in triplicate for each compound concentration to be tested in RPMI 1640 media containing 10% fetal calf serum at a density of either 200 or 2,000 cells per well in 24 well dishes, and incubated overnight at 37° C., 5% CO2. The media from the plate containing 2,000 cells per well was removed, cells were washed once with serum free media and 1 ml of serum free media was placed on cells. Tle plates containing cells both in the presence and absence of serum were incubated for 6 additional days.
To ensure that the cells had indeed exited the cell cyde upon serum withdrawal, the percentage of BrdU positive cells, indicative of those progressing through S phase, was determined in each experiment. For the purpose of this experiment, cellular viability was evaluated simultaneously with the use of SNARF-1, a fluorescent substrate of intracellular esterases which are only active in viable cells. Together, the evaluation of BrdU incorporation and SNARF-1 cleavage by flow cytometry provided an assessment of the viability of arrested cells on a single cell basis. For this analysis, the cells were stained with SNARF-1 as follows and then prepared for determination of BrdU incorporation as described above.
HCT-116 and IMR90 cells were plated at the density described below in T25 flasks in serum-containing media (RPMI-1640 or MEM-a with 10% FCS, respectively). After 24 hours of growth, the media was removed and, after washing the cells, replaced with serum-free media. • HCT-116+FCS 5,000 cells • HCT-116−FCS 100,000 cells • IMR90+FCS 100,000 cells • IMR90−FCS 200,000 cells
The IMR90 cells were grown for an additional 3 days and the HCT-116 cells were grown for an additional 6 days before pulsing with BrdU. A 50 μg aliquot of SNARF-1 (Molecular Probes catalog #C1272) was dissolved in 50 μl DMSO at room temperature for 10 minutes and then diluted into 10 ml PBS. The SNARF-1 was further diluted 1:64,000 before 200 μl was added to each tube of cells which had been cultured in the presence or absence of serum and pulsed with BrdU for 20 hours. The cells were incubated at 37° C. for 30 minutes and then washed with 3 ml of PBS.
These cells were then fixed and prepared for the measurement of BrdU incorporation as described above. The percentage of viable (FL-2) and BrdU positive (FL-1) cells was determined on a FACScan flow cytometer.

[2] = tested on: ADR-res; assay: NCI panel (SRB assay), ADR-res cell line; conditions: 48 hours incubation with compound, unit not given
Excerpt: The evaluation of compounds at the National Cancer Institute in their panel of 60 cell lines provides a wealth of information regarding efficacy in a wide range of tumor types and genetic backgrounds. Included within this panel are cell lines derived from leukemia, melanoma and cancers of the lung, colon, brain, ovary, breast, prostate and kidney. Use of this panel provides a measure of the efficacy of compounds in cells with alterations in many genes that are associated with neoplastic transformation including p53 and Her2/Neu as well as those involved in metabolism and those which confer multi-drug resistance. The data generated in these cell lines with the protocol described below can be used to evaluate the activity of compounds.
Cells were grown in RPMI-1640 10% FCS and plated in 96 well micro-titer plates at densities ranging from 5,000 to 40,000 cells/well. The plates were incubated for 24 hours at 37° C., 5% CO2 for 24 hours. Media containing twice the desired final concentration of the compound (5 doses spanning 4 logs) was prepared and 100 μl was added to each well containing 100 μl media plus cells to yield the desired final concentration. The plates were then incubated for an additional 48 hours.
The effect of the compound on cellular viability was determined with the Sulforhodamine B (SRB) assay which measures total protein. Cells were fixed with cold TCA to a fmal concentration of 10% and incubated at 4° C. for 60 minutes. The supernatant was discarded and the plates were washed five times with water and air-dried. SRB solution at […] in 1% acetic acid was added to each well and the plates were incubated for 10 minutes at room temperature. The plates were washed five times with 1% acetic acid and air-dried. The bound stain was solubilized with 10 mM trizma base and the absorbance was read on a plate reader at […].

[3] = tested on: HCT-116 cells; assay: BrdU incorporation into DNA (flow cytometry); set-up: unit not given here; conditions: inhibition of BrdU incorporation, unit not given; for BrdU 24: analysis at 24 hours; for BrdU 48: analysis at 48 hours; for BrdU 72: analysis at 72 hours
Description: This method measured the percentage of cells that incorporated the nucleotide analog, BrdU, into newly synthesized DNA as cells progressed through the S phase of the cell cycle. The inhibition of BrdU incorporation was used as a measure of a Cdlc inhibitor's effect on S phase progression and DNA replication.
3 sets of HCT-116 cells (100,000 cells/set) were plated in T25 flasks and incubated with a test compound as above. Analysis was done at 24, 48, and 72 hours. BrdU was added to each T-25 flask from a stock of 10 mg/ml to a final concentration of 10 μM and the cells were incubated for an additional 16-18 hours at 37° C. The cells were then prepared for flow cytometric analysis according to manufacturer's protocol (BrdU Flow kit, BD-Pharmingen catalogue # 2354KK) as follows:
Cells were harvested (adherent and floating) from the T25 flasks directly into Falcon 12×75 flow cytometric tubes as above followed by fixation and permeabilization with the addition of 100 μl Cytofix/Cytoperm buffer (30 minutes, room temperature). The cells were then washed with 1 ml of Perm Wash buffer and the cell pellets were resuspended in 100 μl Cytoperm Plus buffer and incubated on ice for 10 minutes. The cells were then washed again with 1 ml of Perm Wash buffer and the fixation was repeated in 100 μl of Cytofix/Cyto Perm buffer for 10 minutes at room temperature. The cells were then washed with 1 ml of Perm Wash buffer. The cells were next treated for one hour at 37° C. with 100 μl DNase to expose incorporated BrdU followed by another wash step with 1 ml of Perm Wash buffer. […] Cells were protected from light and incubated at room temperature for 20-30 minutes. Following the incubation, the cells were washed with 1 ml of Perrn Wash buffer, resuspended in 300 μl of 2% FBS in PBS, and analyzed on the flow cytometer.

| SMILES | Arrested cell HCT [1] | NCI panel ADR-res [2] | BrdU 24 [3] | BrdU 48 [3] | BrdU 72 [3] |
| --- | --- | --- | --- | --- | --- |
| CC(C)c1nn(-c2c(Cl)cccc2Cl)c2nc(Cc3ccc(O)c(CN4CCN(C(C)C)CC4)c3)[nH]c(=O)c12.Cl.Cl [Compound C] | <0.01 | <0.1 | <0.1 | <0.1 | <1 |
| Cl.Cl.Cl.O=C(Nc1cccc2c1C(=O)c1c-2n[nH]c1-c1ccc(OCCN2CCCC2)cc1)NN1CCOCC1 [Compound I] | <0.1 | <1 | <0.01 | <0.1 | <0.1 |
| CC(C)N1CCN(CCOc2ccc(-c3[nH]nc4c3C(=O)c3c(NC(=O)NN5CCOCC5)cccc3-4)cc2)CC1.Cl.Cl.Cl [E] | <0.1 | <1 | <0.01 | <0.1 | <0.1 |
| CN1CCN(NC(=O)Nc2cccc3c2C(=O)c2c-3n[nH]c2-c2ccc(OCCN3CCCC3)cc2)CC1.Cl.Cl.Cl [F] | <0.1 | <1 | – | <0.1 | <1 |
| CCCN(CCOc1ccc(-c2[nH]nc3c2C(=O)c2c(NC(=O)NN4CCOCC4)cccc2-3)cc1)CC1CC1.Cl.Cl.Cl [G] | <0.1 | <1 | <0.01 | <0.1 | <0.1 |
| Cl.Cl.Cl.O=C(Nc1cccc2c1C(=O)c1c-2n[nH]c1-c1ccc(OCCN(CCO)CCO)cc1)NN1CCOCC1 [H] | <0.1 | >10 | <1 | <1 | <1 |
| CC(C)N1CCN(Cc2cc(-c3[nH]nc4c3C(=O)c3c(NC(=O)NN5CCOCC5)cccc3-4)ccc2O)CC1.Cl.Cl.Cl.Cl [K] | <0.01 | <10 | <0.1 | <0.1 | <0.1 |
| CN1CCN(NC(=O)Nc2cccc3c2C(=O)c2c-3n[nH]c2-c2ccc(OCCN3CCOCC3)cc2)CC1.Cl.Cl [Q] | <0.1 | <10 | <0.1 | <0.1 | <0.1 |
